Data as given in patent publication US20230048678A1, “ICAN DERIVATIVES FOR ANTIFUNGAL USE” (DEBRECENI EGYETEM, priority 2019, published 2023).
Several values for one entry are separate records, joined by “and”; a condition that tells them apart may be missing. Identical values can stand only once.

Assays:
C. albicans SC5314 = assay: CLSI broth microdilution susceptibility (Table 1); format: cell-based; settings: 48 h, 35° C.
[1] = system: C. albicans SC5314, C. krusei ATCC 6258 and C. parapsilosis ATCC 22019; assay: CLSI broth microdilution, MIC summarised over the three Candida test strains; format: cell-based; settings: value or range over the three Candida strains of Table 1, total inhibition
Protocol: ICAN has 3 key moieties, namely the amino, naphthalene and isonitrile. To find out which ones of them are essential for the antifungal behavior and to design more efficient derivatives, comparative studies were carried out, where one of the moieties was exchanged or eliminated. All ICAN derivatives were tested against C. albicans SC5314, C. krusei ATCC 6258 and C. parapsilosis ATCC 22019. The antifungal agents were dissolved in 100% DMSO and diluted further in RPMI-1640 (with L-glutamine but without bicarbonate) and buffered to pH 7.0 with 0.165 M morpholinopropanesulfonic acid (MOPS). MICs were read visually after 48-h incubation at 35° C. using the partial (50%) inhibition (for ICAN derivatives) (PI) and total inhibition (for AMB and ICAN derivatives) (TI) criteria. MICs were determined at least twice.
(§1) The tested C. albicans, C. tropicalis, C. parapsilosis, C. glabrata and C. krusei ATCC strains and clinical isolates are listed in Table 2. MICs were determined according to the CLSI M27-A3 [22]. Antifungal agents were dissolved in 100% DMSO and diluted further in RPMI-1640 (with L-glutamine but without bicarbonate) (Sigma, Budapest, Hungary), and buffered to pH 7.0 with 0.165 M morpholinopropanesulfonic acid (MOPS; Sigma, Budapest, Hungary). The final concentration ranges used for AMB and ICAN derivatives were 0.125 to 4 μg/ml and 0.04 to 20 μg/ml, respectively. Yeast cell suspensions were prepared in RPMI 1640 medium and were adjusted to give a final inoculum concentration of 0.5×10^3 to 2.5×10^3 cells/ml. MICs were read visually after 48-h incubation at 35° C. using the partial (50%) inhibition (for ICAN derivatives) (PI) and total inhibition (for AMB and ICAN derivatives) (TI) criteria. MICs were determined at least twice. For amphotericin B isolates with MIC values of ≤2 mg/L were considered wild-types. [Pfaller M A, 2012]

C. albicans isolates = assay: CLSI M27-A3 broth microdilution on Candida isolates (Table 2); format: cell-based
Protocol: as §1

C. krusei isolates = assay: as above; format: cell-based
Protocol: as §1

C. tropicalis isolates = assay: as above; format: cell-based
Protocol: as §1

C. albicans isolate 3666 = assay: Murine model of acute invasive candidiasis, survival; format: in vivo, BALB/c mice; settings: neutropenic mice, 3×10^4 cfu/mouse iv, 5 mg/kg ip once daily for 5 days, olive oil/water emulsion; untreated controls 0%, P<0.05
Protocol: In the model of acute invasive candidiasis, neutropenic mice were infected via the lateral tail vein with C. albicans isolate 3666 (3×10^4 cfu/mouse) to establish an acute infection. It is well understood that any other fungal pathogens of animals can be used for this purpose. In the example provided herein all untreated control animals died within 6 days. DIMICAN (5 mg/kg) prolonged the survival period of animals compared to non-treated infected controls (P<0.05; 80 versus 0% survivors at day 7 post-infection; FIG. 3a). It should be noted, however, that DIMICAN was administered as intraperitoneal injection which contained DIMICAN as an emulsion in reagent grade olive oil and water. While emulsions are a kind of preferred options in the preparations of the invention, preparing alternative or improved formulations are within the skills of a person skilled in the art.
We used 10-12 week-old female BALB/c mice for all experiments. […] Mice were given food and water ad libitum and were monitored daily. […]
Survival effects were analyzed by the Kaplan—Meier log-rank test. Kidney burden was analysed using a Kruskal—Wallis test with Dunn's posttest for multiple comparisons [Foldi R 2012, Kovacs R 2014].

human cell cultures = settings: from [Nagy M 2018, Nagy Z L; cited from earlier work

**Q.** For `[C-]#[N+]c1cccc2c(N(C)C)cccc12` [DIMICAN, N,N-dimethyl-1-amino-5-isocyanonaphthalene], which MICPI (C. albicans SC5314; partial (50%) inhibition) is on record?
**A.** ≤0.04 µg/mL

**Q.** And the MICTI (C. albicans SC5314; total inhibition)?
**A.** 0.6 µg/mL

**Q.** And the MICTI [1]?
**A.** 0.6 µg/mL and 0.3 to 0.6 µg/mL

**Q.** And the MICPI (C. albicans isolates; isolate 456)?
**A.** ≤0.04 µg/mL

**Q.** And the MICTI (C. albicans isolates; isolate 456)?
**A.** 0.6 µg/mL

**Q.** And the MICPI (C. albicans isolates; isolate 665)?
**A.** ≤0.04 µg/mL

**Q.** What about the MICTI (C. albicans isolates; isolate 665) of the same molecule?
**A.** 0.6 µg/mL

**Q.** And the MICPI (C. albicans isolates; isolate 685)?
**A.** ≤0.04 µg/mL

**Q.** And the MICTI (C. albicans isolates; isolate 685)?
**A.** 0.6 µg/mL

**Q.** And the MICPI (C. albicans isolates; isolate 720)?
**A.** ≤0.04 µg/mL

**Q.** What about the MICTI (C. albicans isolates; isolate 720) of the same molecule?
**A.** 0.6 µg/mL

**Q.** What about the MICPI (C. albicans isolates; isolate 963) of the same molecule?
**A.** ≤0.04 µg/mL

**Q.** What about the MICTI (C. albicans isolates; isolate 963) of the same molecule?
**A.** 0.6 µg/mL

**Q.** What about the MICPI (C. albicans isolates; isolate 1544) of the same molecule?
**A.** ≤0.04 µg/mL

**Q.** And the MICTI (C. albicans isolates; isolate 1544)?
**A.** 0.6 µg/mL

**Q.** And the MICPI (C. albicans isolates; isolate 3666)?
**A.** ≤0.04 µg/mL

**Q.** And the MICTI (C. albicans isolates; isolate 3666)?
**A.** 0.6 µg/mL

**Q.** What about the MICPI (C. albicans isolates; isolate 8658) of the same molecule?
**A.** ≤0.04 µg/mL

**Q.** And the MICTI (C. albicans isolates; isolate 8658)?
**A.** 0.6 µg/mL

**Q.** And the MICPI (C. albicans isolates; isolate ATCC 10231)?
**A.** ≤0.04 µg/mL

**Q.** What about the MICTI (C. albicans isolates; isolate ATCC 10231) of the same molecule?
**A.** 0.3 µg/mL

**Q.** What about the MICPI (C. krusei isolates; isolate 749) of the same molecule?
**A.** 0.08 µg/mL

**Q.** What about the MICTI (C. krusei isolates; isolate 749) of the same molecule?
**A.** 0.08 µg/mL

**Q.** What about the MICPI (C. krusei isolates; isolate 1853) of the same molecule?
**A.** 0.08 µg/mL

**Q.** And the MICTI (C. krusei isolates; isolate 1853)?
**A.** 0.3 µg/mL

**Q.** And the MICPI (C. krusei isolates; isolate 4364)?
**A.** ≤0.04 µg/mL

**Q.** And the MICTI (C. krusei isolates; isolate 4364)?
**A.** 0.15 µg/mL

**Q.** And the MICPI (C. krusei isolates; isolate 5029)?
**A.** ≤0.04 µg/mL

**Q.** And the MICTI (C. krusei isolates; isolate 5029)?
**A.** 0.08 µg/mL

**Q.** What about the MICPI (C. krusei isolates; isolate 5072) of the same molecule?
**A.** 0.08 µg/mL

**Q.** And the MICTI (C. krusei isolates; isolate 5072)?
**A.** 0.3 µg/mL

**Q.** And the MICPI (C. krusei isolates; isolate 25504)?
**A.** 0.08 µg/mL

**Q.** What about the MICTI (C. krusei isolates; isolate 25504) of the same molecule?
**A.** 0.3 µg/mL

**Q.** And the MICPI (C. krusei isolates; isolate 34987)?
**A.** ≤0.04 µg/mL

**Q.** What about the MICTI (C. krusei isolates; isolate 34987) of the same molecule?
**A.** 0.08 µg/mL

**Q.** And the MICPI (C. krusei isolates; isolate ATCC 6258)?
**A.** 0.15 µg/mL

**Q.** And the MICTI (C. krusei isolates; isolate ATCC 6258)?
**A.** 0.3 µg/mL

**Q.** What about the MICPI (C. tropicalis isolates; isolate 579) of the same molecule?
**A.** 0.08 µg/mL

**Q.** And the MICTI (C. tropicalis isolates; isolate 579)?
**A.** 0.6 µg/mL

**Q.** What about the MICPI (C. tropicalis isolates; isolate 622) of the same molecule?
**A.** 0.08 µg/mL

**Q.** And the MICTI (C. tropicalis isolates; isolate 622)?
**A.** 0.3 µg/mL

**Q.** And the MICPI (C. tropicalis isolates; isolate 1776)?
**A.** 0.08 µg/mL

**Q.** What about the MICTI (C. tropicalis isolates; isolate 1776) of the same molecule?
**A.** 0.3 µg/mL

**Q.** What about the MICPI (C. tropicalis isolates; isolate 2467) of the same molecule?
**A.** 0.15 µg/mL

**Q.** And the MICTI (C. tropicalis isolates; isolate 2467)?
**A.** 1.25 µg/mL

**Q.** What about the MICPI (C. tropicalis isolates; isolate 3014) of the same molecule?
**A.** 0.08 µg/mL

**Q.** What about the MICTI (C. tropicalis isolates; isolate 3014) of the same molecule?
**A.** 0.6 µg/mL

**Q.** What about the MICPI (C. tropicalis isolates; isolate 5115) of the same molecule?
**A.** 0.08 µg/mL

**Q.** What about the MICTI (C. tropicalis isolates; isolate 5115) of the same molecule?
**A.** 1.25 µg/mL

**Q.** What about the MICPI (C. tropicalis isolates; isolate 5806) of the same molecule?
**A.** 0.08 µg/mL

**Q.** What about the MICTI (C. tropicalis isolates; isolate 5806) of the same molecule?
**A.** 0.15 µg/mL

**Q.** And the MICPI (C. tropicalis isolates; isolate ATCC 750)?
**A.** 0.15 µg/mL

**Q.** And the MICTI (C. tropicalis isolates; isolate ATCC 750)?
**A.** 1.25 µg/mL

**Q.** What about the “survivors at day 7 post infection” value (C. albicans isolate 3666) of the same molecule?
**A.** 80%

**Q.** What about the cytotoxic effect (human cell cultures) of the same molecule?
**A.** no cytotoxic effect
